Source: patent US20190125888A1, “TARGETED CONJUGATES AND PARTICLES AND FORMULATIONS THEREOF” (priority 2015, published 2019)
Like-named read-outs stand apart in the source and are kept apart here.

How the values were obtained:
human SSTR2 = human SSTR2 (Homo sapiens, UniProt P30874); assay: Radioligand-receptor binding assay, [125I] somatostatin, membranes from SSTR2 expressing CHO-K1 cells
Summary of the method: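 CHO-K1 SSTR2 membranes incubated 4 h with 0.03 nM [125I] somatostatin and conjugates in a 10-point, 6-fold series from 10 uM. Bound radioligand measured after filtration and washing; IC50 by non-linear least-squares regression.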

[1] = tested on: NCI-H524 (ATCC) human lung cancer cells; assay type: cell-based
Summary of the method: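 NCI-H524 cells (5,000/well) exposed to conjugates for 6 hours, washed, then grown a further 66 hours; ten-point threefold dilutions from 20 μM. Proliferation by CellTiter-Glo versus vehicle; IC50 by four-parameter nonlinear regression, measured with and without octreotide competition.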

[2] = Chrom LogP of maytansinoid conjugates; assay type: physicochemical
[3] = Ligand charge of maytansinoid conjugates; assay type: physicochemical
[4] = read-out: H524 IC50 6 h, 6 hours treatment, further 66 hours incubation
[5] = read-out: H524 IC50 with 100 μM octreotide 6 h, with 100 μM octreotide competition, 6 h treatment

Chain of human SSTR2 (P30874 whole entry): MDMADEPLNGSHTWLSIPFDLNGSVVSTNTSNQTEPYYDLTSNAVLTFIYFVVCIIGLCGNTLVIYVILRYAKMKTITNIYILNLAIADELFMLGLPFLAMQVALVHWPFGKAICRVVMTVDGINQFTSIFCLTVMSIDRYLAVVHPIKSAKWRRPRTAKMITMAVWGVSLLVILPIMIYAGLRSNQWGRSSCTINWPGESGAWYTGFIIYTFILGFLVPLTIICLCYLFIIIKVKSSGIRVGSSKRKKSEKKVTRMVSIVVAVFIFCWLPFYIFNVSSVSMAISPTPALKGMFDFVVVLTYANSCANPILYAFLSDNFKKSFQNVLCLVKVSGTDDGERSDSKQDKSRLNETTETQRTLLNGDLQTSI

In the case of `COc1cc2cc(c1Cl)N(C)C(=O)C[C@H](OC(=O)[C@H](C)N(C)C(=O)CCSSC(C)(C)[C@H](NC(=O)[C@@H]1CSSC[C@H](NC(=O)[C@@H](Cc3ccccc3)NS(=O)(=O)Cc3ccc(C(F)(F)F)cc3)C(=O)N[C@@H](Cc3ccc(O)cc3)C(=O)N[C@H](Cc3c[nH]c4ccccc34)C(=O)N[C@@H](CCCCN)C(=O)N[C@@H]([C@@H](C)O)C(=O)N1)C(N)=O)[C@]1(C)O[C@H]1[C@H](C)[C@@H]1C[C@@](O)(NC(=O)O1)[C@H](OC)/C=C/C=C(\C)C2` [Conjugate 14], the Ki (human SSTR2) is reported as 0.041 nM, the IC50 [1, 4] is reported as 14 nM and the IC50 [1, 5] is reported as 331 nM. For the same compound, the chromatographic logP [2] was 3.23 and the Ligand charge [3] was “+1”.
With `COc1cc2cc(c1Cl)N(C)C(=O)C[C@H](OC(=O)[C@H](C)N(C)C(=O)CCC(C)(C)SSC[C@H](NC(=O)[C@@H]1CSSC[C@H](NC(=O)[C@H](N)Cc3ccccc3)C(=O)N[C@@H](Cc3ccc(O)cc3)C(=O)N[C@H](Cc3c[nH]c4ccccc34)C(=O)N[C@@H](CCCCN)C(=O)N[C@@H]([C@@H](C)O)C(=O)N1)C(N)=O)[C@]1(C)O[C@H]1[C@H](C)[C@@H]1C[C@@](O)(NC(=O)O1)[C@H](OC)/C=C/C=C(\C)C2` [Conjugate 4] the Ki (human SSTR2) was 0.075 nM, the IC50 [1, 4] was 78 nM and the IC50 [1, 5] was 348 nM. For the same compound, the chromatographic logP [2] was 2.21 and the Ligand charge [3] was “+2”.
Compound `COc1cc2cc(c1Cl)N(C)C(=O)C[C@H](OC(=O)[C@H](C)N(C)C(=O)CCSSC[C@H](NC(=O)[C@@H]1CSSC[C@H](NC(=O)[C@@H](Cc3ccccc3)NC(=O)NCc3ccccc3)C(=O)N[C@@H](Cc3ccc(O)cc3)C(=O)N[C@H](Cc3c[nH]c4ccccc34)C(=O)N[C@@H](CCCCN)C(=O)N[C@@H]([C@@H](C)O)C(=O)N1)C(N)=O)[C@]1(C)O[C@H]1[C@H](C)[C@@H]1C[C@@](O)(NC(=O)O1)[C@H](OC)/C=C/C=C(\C)C2` [Conjugate 28] has a Ki (human SSTR2) of 0.057 nM, an IC50 [1, 4] of 6.1 nM and an IC50 [1, 5] of 31 nM. For the same compound, the chromatographic logP [2] was 2.51 and the Ligand charge [3] was “+1”.
In the case of `COc1cc2cc(c1Cl)N(C)C(=O)C[C@H](OC(=O)[C@H](C)N(C)C(=O)CCSSC[C@H](NC(=O)[C@@H]1CSSC[C@H](NC(=O)[C@@H](Cc3ccccc3)NC(=O)Nc3cc(C(F)(F)F)cc(C(F)(F)F)c3)C(=O)N[C@@H](Cc3ccc(O)cc3)C(=O)N[C@H](Cc3c[nH]c4ccccc34)C(=O)N[C@@H](CCCCN)C(=O)N[C@@H]([C@@H](C)O)C(=O)N1)C(N)=O)[C@]1(C)O[C@H]1[C@H](C)[C@@H]1C[C@@](O)(NC(=O)O1)[C@H](OC)/C=C/C=C(\C)C2` [Conjugate 38], the Ki (human SSTR2) is reported as 5.34 nM, the IC50 [1, 4] is reported as 261 nM and the IC50 [1, 5] is reported as 296 nM. The chromatographic logP [2] was 3.47 and the Ligand charge [3] was “+1”.
With `COc1cc2cc(c1Cl)N(C)C(=O)C[C@H](OC(=O)[C@H](C)N(C)C(=O)CCSSC[C@H](NC(=O)[C@@H]1CSSC[C@H](NC(=O)[C@H](N)Cc3ccccc3)C(=O)N[C@@H](Cc3ccc(O)cc3)C(=O)N[C@H](Cc3c[nH]c4ccccc34)C(=O)N[C@@H](CCCCNC(=O)NCCCCCCN)C(=O)N[C@@H]([C@@H](C)O)C(=O)N1)C(N)=O)[C@]1(C)O[C@H]1[C@H](C)[C@@H]1C[C@@](O)(NC(=O)O1)[C@H](OC)/C=C/C=C(\C)C2` [Conjugate 56] the Ki (human SSTR2) was 1900 nM, the IC50 [1, 4] was 246 nM and the IC50 [1, 5] was 361 nM. The chromatographic logP [2] was 1.92 and the Ligand charge [3] was “+2”.
`COc1cc2cc(c1Cl)N(C)C(=O)C[C@H](OC(=O)[C@H](C)N(C)C(=O)CCSSC(C)(C)[C@H](NC(=O)[C@@H]1CSSC[C@H](NC(=O)[C@H](N)Cc3ccccc3)C(=O)N[C@@H](Cc3ccc(O)cc3)C(=O)N[C@H](Cc3c[nH]c4ccccc34)C(=O)N[C@@H](CCCCNC(=O)NCCCCCCN)C(=O)N[C@@H]([C@@H](C)O)C(=O)N1)C(N)=O)[C@]1(C)O[C@H]1[C@H](C)[C@@H]1C[C@@](O)(NC(=O)O1)[C@H](OC)/C=C/C=C(\C)C2` [Conjugate 57] gave a Ki (human SSTR2) of 69 nM, an IC50 [1, 4] of 408 nM and an IC50 [1, 5] of 652 nM. The chromatographic logP [2] was 2.12 and the Ligand charge [3] was “+2”.
With `COc1cc2cc(c1Cl)N(C)C(=O)C[C@H](OC(=O)[C@H](C)N(C)C(=O)CCSSC(C)(C)[C@H](NC(=O)[C@@H]1CSSC[C@H](NC(=O)[C@@H](Cc3ccccc3)NC(=O)NCc3ccccc3)C(=O)N[C@@H](Cc3ccc(O)cc3)C(=O)N[C@H](Cc3c[nH]c4ccccc34)C(=O)N[C@@H](CCCCN)C(=O)N[C@@H]([C@@H](C)O)C(=O)N1)C(N)=O)[C@]1(C)O[C@H]1[C@H](C)[C@@H]1C[C@@](O)(NC(=O)O1)[C@H](OC)/C=C/C=C(\C)C2` [Conjugate 7] the Ki (human SSTR2) was 0.025 nM, the IC50 [1, 4] was 4.7 nM and the IC50 [1, 5] was 181 nM. For the same compound, the chromatographic logP [2] was 2.6 and the Ligand charge [3] was “+1”.
`CCNC(=O)N[C@H](Cc1ccccc1)C(=O)N[C@H]1CSSC[C@@H](C(=O)N[C@@H](CSSCCC(=O)N(C)[C@@H](C)C(=O)O[C@H]2CC(=O)N(C)c3cc(cc(OC)c3Cl)C/C(C)=C/C=C/[C@@H](OC)[C@@]3(O)C[C@H](OC(=O)N3)[C@@H](C)[C@@H]3O[C@@]23C)C(=O)NCC)NC(=O)[C@H]([C@@H](C)O)NC(=O)[C@H](CCCCN)NC(=O)[C@@H](Cc2c[nH]c3ccccc23)NC(=O)[C@H](Cc2ccc(O)cc2)NC1=O` [Conjugate 30] gave a Ki (human SSTR2) of 0.071 nM, an IC50 [1, 4] of 2.4 nM and an IC50 [1, 5] of 27 nM. The chromatographic logP [2] was 2.79 and the Ligand charge [3] was “+1”.
For `COc1cc2cc(c1Cl)N(C)C(=O)C[C@H](OC(=O)[C@H](C)N(C)C(=O)CCSSC(C)(C)[C@H](NC(=O)[C@@H]1CSSC[C@H](NC(=O)[C@@H](Cc3ccccc3)NCc3ccccc3)C(=O)N[C@@H](Cc3ccc(O)cc3)C(=O)N[C@H](Cc3c[nH]c4ccccc34)C(=O)N[C@@H](CCCCN)C(=O)N[C@@H]([C@@H](C)O)C(=O)N1)C(N)=O)[C@]1(C)O[C@H]1[C@H](C)[C@@H]1C[C@@](O)(NC(=O)O1)[C@H](OC)/C=C/C=C(\C)C2` [Conjugate 12], the Ki (human SSTR2) was 0.02 nM, the IC50 [1, 4] was 19.5 nM and the IC50 [1, 5] was 331 nM. The chromatographic logP [2] was 2.57 and the Ligand charge [3] was “+2”.
`COc1cc2cc(c1Cl)N(C)C(=O)C[C@H](OC(=O)[C@H](C)N(C)C(=O)CCSSC[C@H](NC(=O)[C@@H]1CSSC[C@H](NC(=O)[C@@H](Cc3ccccc3)NC(=O)NC3CCCCC3)C(=O)N[C@@H](Cc3ccc(O)cc3)C(=O)N[C@H](Cc3c[nH]c4ccccc34)C(=O)N[C@@H](CCCCN)C(=O)N[C@@H]([C@@H](C)O)C(=O)N1)C(N)=O)[C@]1(C)O[C@H]1[C@H](C)[C@@H]1C[C@@](O)(NC(=O)O1)[C@H](OC)/C=C/C=C(\C)C2` [Conjugate 25] gave a Ki (human SSTR2) of 0.11 nM, an IC50 [1, 4] of 32 nM and an IC50 [1, 5] of 123 nM. For the same compound, the chromatographic logP [2] was 2.94 and the Ligand charge [3] was “+1”.
Compound `CCNC(=O)N[C@H](Cc1ccccc1)C(=O)N[C@H]1CSSC[C@@H](C(=O)N[C@H](C(N)=O)C(C)(C)SSCCC(=O)N(C)[C@@H](C)C(=O)O[C@H]2CC(=O)N(C)c3cc(cc(OC)c3Cl)C/C(C)=C/C=C/[C@@H](OC)[C@@]3(O)C[C@H](OC(=O)N3)[C@@H](C)[C@@H]3O[C@@]23C)NC(=O)[C@H]([C@@H](C)O)NC(=O)[C@H](CCCCN)NC(=O)[C@@H](Cc2c[nH]c3ccccc23)NC(=O)[C@H](Cc2ccc(O)cc2)NC1=O` [Conjugate 13] has a Ki (human SSTR2) of 0.018 nM, an IC50 [1, 4] of 6.5 nM and an IC50 [1, 5] of 340 nM. The chromatographic logP [2] was 2.67 and the Ligand charge [3] was “+1”.
`COc1cc2cc(c1Cl)N(C)C(=O)C[C@H](OC(=O)[C@H](C)N(C)C(=O)CCSSC(C)(C)[C@H](NC(=O)[C@@H]1CSSC[C@H](NC(=O)[C@@H](Cc3ccccc3)NC(=O)Nc3ccccc3)C(=O)N[C@@H](Cc3ccc(O)cc3)C(=O)N[C@H](Cc3c[nH]c4ccccc34)C(=O)N[C@@H](CCCCN)C(=O)N[C@@H]([C@@H](C)O)C(=O)N1)C(N)=O)[C@]1(C)O[C@H]1[C@H](C)[C@@H]1C[C@@](O)(NC(=O)O1)[C@H](OC)/C=C/C=C(\C)C2` [Conjugate 11] gave a Ki (human SSTR2) of 0.034 nM, an IC50 [1, 4] of 6.1 nM and an IC50 [1, 5] of 232 nM. For the same compound, the chromatographic logP [2] was 2.98 and the Ligand charge [3] was “+1”.
Compound `COc1cc2cc(c1Cl)N(C)C(=O)C[C@H](OC(=O)[C@H](C)N(C)C(=O)CCSSC[C@H](NC(=O)[C@@H]1CSSC[C@H](NC(=O)[C@@H](Cc3ccccc3)NC(=O)NCc3ccc(C(F)(F)F)cc3)C(=O)N[C@@H](Cc3ccc(O)cc3)C(=O)N[C@H](Cc3c[nH]c4ccccc34)C(=O)N[C@@H](CCCCN)C(=O)N[C@@H]([C@@H](C)O)C(=O)N1)C(N)=O)[C@]1(C)O[C@H]1[C@H](C)[C@@H]1C[C@@](O)(NC(=O)O1)[C@H](OC)/C=C/C=C(\C)C2` [Conjugate 37] has a Ki (human SSTR2) of 0.16 nM, an IC50 [1, 4] of 3.7 nM and an IC50 [1, 5] of 93 nM. For the same compound, the chromatographic logP [2] was 3.07 and the Ligand charge [3] was “+1”.
Work on `COc1cc2cc(c1Cl)N(C)C(=O)C[C@H](OC(=O)[C@H](C)N(C)C(=O)CCSSC[C@H](NC(=O)[C@@H]1CSSC[C@H](NC(=O)[C@@H](Cc3ccccc3)NC(=O)NCCC(c3ccccc3)c3ccccc3)C(=O)N[C@@H](Cc3ccc(O)cc3)C(=O)N[C@H](Cc3c[nH]c4ccccc34)C(=O)N[C@@H](CCCCN)C(=O)N[C@@H]([C@@H](C)O)C(=O)N1)C(N)=O)[C@]1(C)O[C@H]1[C@H](C)[C@@H]1C[C@@](O)(NC(=O)O1)[C@H](OC)/C=C/C=C(\C)C2` [Conjugate 41] yielded a Ki (human SSTR2) of 0.5 nM, an IC50 [1, 4] of 41 nM and an IC50 [1, 5] of 97 nM. The chromatographic logP [2] was 3.29 and the Ligand charge [3] was “+1”.
